# Assay results published in BindingDB's records for doi:10.1021/jm200288r (National Institute On Drug Abuse-Intramural Research Program, 2011).
# Assay: Antagonist activity at human dopamine D2 receptor expressed in CHOp cells assessed as inhibition of quinpirole-induced mitogenesis
row,IC50,Structure (SMILES)
1,421 nM,COc1ccccc1N1CCN(CC(F)CCNC(=O)c2cc3ccccc3s2)CC1 (configuration not stated) [N-(3-Fluoro-4-(4-(2-methoxyphenyl)piperazin-1-yl)butyl)-benzo[b]thiophene-2-carboxamide]
2,1600 nM,"COc1ccc2oc(C(=O)NCCC(F)CN3CCN(c4cccc(Cl)c4Cl)CC3)cc2c1 (configuration not stated) [N-(4-(4-(2,3-Dichlorophenyl)piperazin-1-yl)-3-fluorobutyl)-5-methoxybenzofuran-2-carboxamide]"
